What was measured:
Conditions in all cases: 25 µM pACP, 24 h, maintenance medium 1% FBS, ratio of viability to vehicle (PBS), at least three technical repetitions
HT29 = test: MTT primary screening of anticancer activity, HT29; format: cell-based, Human
Source text: (§1) We successfully chemically synthesized 40 pACPs for the purpose of in vitro or in vivo characterization of their potential anticancer efficacy. In the initial step, we conducted an in vitro primary screen of these 40 pACPs using a panel of 16 different cancer cell lines, including four human CRC lines (HT29, Caco2, HCT116, and […]), as well as 12 other cancer models (Table S4, Supporting Information). We deliberately selected a diverse panel of cell lines to assess the effect of pACPs across various genetic backgrounds. Briefly, the cancer cells were cultured in specific media (details provided in the Experimental Section) and then treated with pACPs at a final concentration of 25 µM. Peptides with minimum effective inhibition concentrations >25 µM were considered non‐ACPs. After exposure to pACPs, the survival rate of the cancer cells was measured using the MTT assay. Remarkably, 39 out of the 40 pACPs (97.5%) induced at least 20% inhibition in at least one cell line (Figure 3a and Table S5, Supporting Information). […] Thus, our method successfully identified pACPs with a very high rate of anticancer effects across various cancer cell lines.
(§2) To evaluate the activity of the 40 potentially effective pACPs, a panel of 16 cancer cell lines was treated, including human CRC cell lines (HT29, Caco‐2, HCT116). Details of the cell lines used, respective media, and culture conditions were presented in Table S1 (Supporting Information). Once the cells reached 60% confluence, it was incubated with each candidate peptide at a concentration of 25 µM pACPs for 24 h. Concurrently, the complete medium was replaced with a maintenance medium containing only 1% FBS. Subsequently, the viability of each cell line using the MTT Cell Proliferation and Cytotoxicity Assay Kit according to the manufacturer's instructions was assessed. […] For the CRC cell line CT26, it was calculated the CC50 value using two peptides (pACP1780 and pACP2283) with relevant data presented in Table S6 (Supporting Information). The calculation was performed using an online tool: https://www.aatbio.com/tools/ic50‐calculator.

Caco2 = test: MTT primary screening of anticancer activity, Caco2; format: cell-based, Human
Source text: as §1, §2

HCT116 = test: MTT primary screening of anticancer activity, HCT116; format: cell-based, Human
Source text: as §1, §2

CT26 = test: MTT primary screening of anticancer activity, CT26; format: cell-based, Murine
Source text: as §1, §2

MDA-MB-231 = test: MTT primary screening of anticancer activity, MDA-MB-231; format: cell-based
Source text: as §1, §2

MDA-MB-436 = test: MTT primary screening of anticancer activity, MDA-MB-436; format: cell-based
Source text: as §1, §2

MDA-MB-453 = test: MTT primary screening of anticancer activity, MDA-MB-453; format: cell-based
Source text: as §1, §2

MDA-MB-468 = test: MTT primary screening of anticancer activity, MDA-MB-468; format: cell-based
Source text: as §1, §2

SK-BR-3 = test: MTT primary screening of anticancer activity, SK-BR-3; format: cell-based
Source text: as §1, §2

BT474 = test: MTT primary screening of anticancer activity, BT474; format: cell-based
Source text: as §1, §2

T47D = test: MTT primary screening of anticancer activity, T47D; format: cell-based
Source text: as §1, §2

EFM192A = test: MTT primary screening of anticancer activity, EFM192A; format: cell-based
Source text: as §1, §2

B16 = test: MTT primary screening of anticancer activity, B16; format: cell-based, Mouse
Source text: as §1, §2

MCF7 = test: MTT primary screening of anticancer activity, MCF7; format: cell-based
Source text: as §1, §2

Hela = test: MTT primary screening of anticancer activity, Hela; format: cell-based, Human
Source text: as §1, §2

LCC = test: MTT primary screening of anticancer activity, LCC; format: cell-based
Source text: as §1, §2

Row | Sequence | Survival rate of cancer cells in primary screening (HT29) | Survival rate of cancer cells in primary screening (Caco2) | Survival rate of cancer cells in primary screening (HCT116) | Survival rate of cancer cells in primary screening (CT26) | Survival rate of cancer cells in primary screening (MDA-MB-231) | Survival rate of cancer cells in primary screening (MDA-MB-436) | Survival rate of cancer cells in primary screening (MDA-MB-453) | Survival rate of cancer cells in primary screening (MDA-MB-468) | Survival rate of cancer cells in primary screening (SK-BR-3) | Survival rate of cancer cells in primary screening (BT474) | Survival rate of cancer cells in primary screening (T47D) | Survival rate of cancer cells in primary screening (EFM192A) | Survival rate of cancer cells in primary screening (B16) | Survival rate of cancer cells in primary screening (MCF7) | Survival rate of cancer cells in primary screening (Hela) | Survival rate of cancer cells in primary screening (LCC)
1 | GWKKSQCCRNGFYRERGQQQAKNFMSQESFPVRENGE [pACP602] | 1.00 | 1.00 | 1.00 | 1.00 | 1.00 | 1.00 | 1.00 | 1.00 | 1.00 | 1.00 | 0.70 | 1.00 | 0.80 | 0.77 | 1.00 | 1.00
2 | HPGCRKAPGCLCTGVIPSAAIPGTGFEIGGAGCFPLALNCNCATLGKV [pACP631] | 1.00 | 1.00 | 1.00 | 1.00 | 1.00 | 1.00 | 1.00 | 1.00 | 1.00 | 1.00 | 0.79 | 1.00 | 0.76 | 1.00 | 1.00 | 1.00
3 | IPNKKAGSRCLSKKCLLPAKRAFEIHFLTQLTGDIKGI [pACP766] | 0.47 | 0.68 | 1.00 | 1.00 | 1.00 | 0.52 | 1.00 | 1.00 | 1.00 | 0.71 | 0.61 | 1.00 | 1.00 | 0.59 | 0.68 | 1.00
4 | IYRKGTCADCAQGGVCTGHCSNKKTCAALKGVDKIAEDLGRGIK [pACP822] | 1.00 | 1.00 | 1.00 | 1.00 | 1.00 | 1.00 | 1.00 | 1.00 | 1.00 | 1.00 | 0.63 | 1.00 | 0.69 | 0.78 | 1.00 | 1.00
5 | KFCSSFFKSLQFPKAETLVGFKGKALKISNVLIKKSPIIK [pACP860] | 1.00 | 1.00 | 1.00 | 1.00 | 1.00 | 1.00 | 1.00 | 0.60 | 1.00 | 0.70 | 0.75 | 1.00 | 0.77 | 0.78 | 0.78 | 1.00
6 | KGVRGKICKGKRCKQISNSGCDRQEIQEKQENRYRKEKQNKG [pACP886] | 1.00 | 1.00 | 1.00 | 1.00 | 1.00 | 1.00 | 1.00 | 1.00 | 1.00 | 1.00 | 0.69 | 1.00 | 0.78 | 1.00 | 0.73 | 1.00
7 | KSLQMVLSFVIIFADKKKTLATLIVAKKKKGW [pACP1096] | 0.71 | 1.00 | 1.00 | 1.00 | 1.00 | 0.69 | 1.00 | 1.00 | 1.00 | 1.00 | 1.00 | 1.00 | 1.00 | 1.00 | 1.00 | 1.00
8 | LARPDAAPKKQLRRPLRFRQPEWRRISKIHHIPRRFRRA [pACP1156] | 1.00 | 1.00 | 1.00 | 1.00 | 1.00 | 0.74 | 1.00 | 1.00 | 1.00 | 1.00 | 0.74 | 1.00 | 0.78 | 1.00 | 1.00 | 1.00
9 | LLSDFRQYRTKIVRQMRRQIFRQMKQKAE [pACP1210] | 1.00 | 1.00 | 1.00 | 1.00 | 1.00 | 1.00 | 1.00 | 1.00 | 1.00 | 1.00 | 0.65 | 1.00 | 0.76 | 0.79 | 1.00 | 1.00
